In patent US11434241B2, “Pyrimidine derivatives for prevention and treatment of bacterial infections” (UNIVERSITE DE LIEGE, priority 2018, dated 2022):
≈ marks a conversion by molar mass, not a printed value. Where two headings read alike, the source gives them in different places.

Experiments:
[1] = system: Staphylococcus epidermidis (ATCC 35984, also known as RP62A or MRSE); experiment: MIC determination on S. epidermidis (EUCAST, OD600 after overnight growth in MHB); type: cell-based
Method: The Minimal Inhibitory Concentration (MIC) of molecules 2329, 2348, 2412, 2452 and 2461 was determined on Staphylococcus epidermidis (ATCC 35984, also known as RP62A) according to EUCAST (European Committee on Antimicrobial Susceptibility Testing) recommendations.
Briefly, a single colony grown on a Tryptic Soy Agar (TSA) plate was resuspended and cultured in Tryptic Soy Broth (TSB) overnight (O/N) in aerobic conditions (37° C. with 220 rpm shaking), next day a 1:50 inoculum in Mueller-Hinton broth (MHB) was incubated in aerobic conditions for 3 hr and an inoculum of 1:100 dilution, corresponding to 3×10^5 CFU/ml, was incubated in presence or absence of different concentrations of the molecules in 1% DMSO (vehicle). After O/N growth the OD of each culture was measured at 600 nm in a spectrophotometer (OD600). The MIC represents the concentration at which there is no visible growth of bacteria, i.e. ΔOD at 600 nm equal to zero (blank is the medium alone).
The Minimal Inhibitory Concentration (MIC) of pyrazolopyrimidine molecules 2539, 2544, 2666,2676, 2693, 2783, 2784 and 2782 and of purine molecules 2498, 2511, 2525, 2527, 2833, and 2840 was determined on S. epidermidis (ATCC 35984, also known as RP62A or MRSE) according to EUCAST (European Committee on Antimicrobial Susceptibility Testing) recommendations.
Briefly, a single colony grown on an agar plate was resuspended and cultured in Triptic Soy Broth (TSB) medium overnight (O/N) in aerobic conditions (37° C. with 220 rpm shaking), next day a 1:50 inoculum in Mueller-Hinton broth (MHB) was incubated in aerobic conditions for 3 hr (OD=0.08-0.1) and an inoculum of 1:300 dilution, corresponding to 3×10^5 CFU/ml, was incubated in presence or absence of different concentrations of each of the molecules in 1% DMSO (vehicle). After O/N growth the OD of each culture was measured at 600 nm (600) in a spectrophotometer (Victor 3-Perkin Elmer). The MIC represents the concentration at which there is no visible growth of bacteria, i.e. ΔOD at 600 nm equal to zero (where ΔOD is the difference between the OD with the molecule and the OD of the blank, the medium alone).
Molecule 36z has been tested for its potential antibacterial activity by determining its minimal inhibitory concentration (MIC) according to protocols recommended by EUCAST to assess the efficacy of antibiotics against bacterial strains. In brief MIC in MRSA (ATCC BAA-1556) or in Xen29 (Perkin Elmer-ATCC 12600) for 36z (molecule 25 in WO2009/034386) was determined by culturing a single colony of MRSA or Xen29 in brain heart infusion (BHI) broth overnight (O/N) in aerobic conditions (37° C. with 220 rpm shaking), while MIC for MRSE (ATCC 35984) was determined by culturing MRSE in TSB O/N. Next day a 1:100 inoculum in Mueller-Hinton broth (MHB) is incubated in aerobic conditions for 3 hr (OD=0.08-0.1) and an inoculum of 1:300 dilution, corresponding to 3×10^5 CFU/ml, is incubated in presence or absence of different concentrations of the tested molecules in 1% DMSO. After O/N growth the OD of each culture was measured at 600 nm (OD600) in a spectrophotometer (Victor 3-Perkin Elmer). The MIC represents the concentration at which there is no visible growth of bacteria, i.e. ΔOD at 600 nm equal to zero (blank is the medium alone). No antibacterial activity was found against MRSA (ATCC BAA-1556), Xen29 (Perkin Elmer-ATCC 12600 or MRSE (ATCC 35984) strains when the molecule was used at concentrations up to 200 μM.

[2] = system: Glycopeptide intermediate-resistant (GISA) S. aureus Mu-50 (ATCC 700695); experiment: MIC determination on glycopeptide intermediate-resistant S. aureus; type: cell-based; settings: Staphylococcus aureus, ATCC700695, read-out: MIC S. aureus GISA
Method: Further experiments are conducted using different strains of S. aureus, as clinically relevant Gram-positive bacterial strains: S. aureus ATCC 25904, methicillin-resistant S. aureus (MRSA) ATCC BAA-1556, Glycopeptide intermediate-resistant (GISA) S. aureus Mu-50 (ATCC 700695) in order to determine the Minimal Inhibitory Concentration (MIC) which is the minimal concentration required to prevent bacterial growth. The bioluminescent strain S. aureus Xen29 (ATCC 12600) was also used. This strain is derived from the parental strain S. aureus ATCC 12600, a pleural fluid isolate, which is also designated as NCTC8532.
A single colony selected from the different strains of S. aureus is resuspended and cultured in brain heart infusion (BHI) broth overnight (O/N) in aerobic conditions (37° C. with 220 rpm shaking), next day a 1:100 inoculum in Mueller-Hinton broth (MHB) is incubated in aerobic conditions for 3 hr (=OD0.08-0.1) and an inoculum of 1:300 dilution, corresponding to 3×10^5 CFU/ml, is incubated in presence or absence of different concentrations of the tested molecules in 1% DMSO. After O/N growth the OD of each culture was measured at 600 nm (OD600) in a spectrophotometer (Victor 3-Perkin Elmer). The MIC represents the concentration at which there is no visible growth of bacteria, i.e. ΔOD at 600 nm equal to zero (blank is the medium alone). […] The MIC of molecule 2329 against Glycopeptide intermediate-resistant (GISA) S. aureus Mu-50 (ATCC 700695) is in between 25 and 30 μM, while it is above 50 μM for molecules 2348, 2412, and 2452.

[3] = system: vancomycin-resistant (VRE) E. faecalis ATCC BAA-2365; experiment: MIC determination on vancomycin-resistant E. faecalis; type: cell-based, Enterococcus faecalis; settings: Mueller-Hinton broth (MHB)
Method: Further experiments were conducted using the clinically relevant Gram-positive bacterial strain of vancomycin-resistant (VRE) E. faecalis ATCC BAA-2365, in order to determine the Minimal Inhibitory Concentration (MIC) which is the minimal concentration required to prevent bacterial growth.
A single colony selected from E. faecalis VRE is resuspended and cultured in the brain heart infusion (BHI) broth overnight (O/N) in aerobic conditions (37° C. with 220 rpm shaking), next day a 1:100 inoculum in Mueller-Hinton broth (MHB) is incubated in aerobic conditions for 3 hr (OD=0.08-0.1) and an inoculum of 1:300 dilution, corresponding to 3×10^5 CFU/ml, is incubated in presence or absence of different concentrations of the tested molecules in 1% DMSO. After O/N growth the OD of each culture is measured at 600 nm (OD600) in a spectrophotometer (Victor 3-Perkin Elmer). The MIC represents the concentration at which there is no visible growth of bacteria, i.e. ΔOD at 600 nm equal to zero (blank is the medium alone).

[4] = Staphylococcus epidermidis, Mueller-Hinton broth (MHB), read-out: MIC S. epidermidis RP62

| SMILES | MIC [1, 4] [µM] | MIC [2] [µM] | MIC [3] [µM] | antibacterial activity / inhibition of MRSE growth (in words) ([1]; MHB medium) | MIC ([1]; MHB medium, tested up to 100 μM, read-out: MIC MRSE) [µM] | MIC ([1]; Staphylococcus epidermidis, MHB medium, tested up to 100 μM, read-out: MIC MRSE) [µM] | MIC ([1]; Staphylococcus epidermidis, read-out: MIC MRSE) [µM] |
| --- | --- | --- | --- | --- | --- | --- | --- |
| CCCSc1nc(N[C@@H]2C[C@H]2c2ccc(F)c(F)c2)c2ncn(C)c2n1 [Molecule 2329, N-((1R,2S)-2-(3,4-difluorophenyl)cyclopropyl)-9-methyl-2-(propylthio)-9H-purin-6-amine] | 20 (≈ 7.51 µg/mL) | 25 to 30 (≈ 9.39 to 11.3 µg/mL) | 25 (≈ 9.39 µg/mL) |  |  |  |  |
| CCCSc1nc(N[C@@H]2C[C@H]2c2ccc(F)c(F)c2)c2ncn(CC)c2n1 [Molecule 2348, N-((1R,2S)-2-(3,4-difluorophenyl)cyclopropyl)-9-ethyl-2-(propylthio)-9H-purin-6-amine] | 20 (≈ 7.79 µg/mL) | > 50 | > 50 |  |  |  |  |
| C=CCn1cnc2c(N[C@@H]3C[C@H]3c3ccc(F)c(F)c3)nc(SCCC)nc21 [Molecule 2412, 9-allyl-N-((1R,2S)-2-(3,4-difluorophenyl)cyclopropyl)-2-(propylthio)-9H-purin-6-amine] | > 50 | > 50 | > 50 |  |  |  |  |
| C#CCn1cnc2c(N[C@@H]3C[C@H]3c3ccc(F)c(F)c3)nc(SCCC)nc21 [Molecule 2452, N-((1R,2S)-2-(3,4-difluorophenyl)cyclopropyl)-9-(prop-2-yn-1-yl)-2-(propylthio)-9H-purin-6-amine] | > 50 | > 50 | > 50 |  |  |  |  |
| CCn1cnc2c(N[C@@H]3C[C@H]3c3ccc(F)c(F)c3)nc(SC)nc21 [Molecule 2511, N-((1R,2S)-2-(3,4-difluorophenyl)cyclopropyl)-9-ethyl-2-(methylthio)-9H-purin-6-amine] |  |  |  | able to inhibit MRSE growth | >100 | > 100 |  |
| CCSc1nc(N[C@@H]2C[C@H]2c2ccc(F)c(F)c2)c2cnn(C)c2n1.Cl [Molecule 2666, N-((1R,2S)-2-(3,4-difluorophenyl)cyclopropyl)-6-(ethylthio)-1-methyl-1H-pyrazolo[3,4-d]pyrimidin-4-amine hydrochloride] |  |  |  | able to inhibit MRSE growth |  |  | 50 |
